Where two headings read alike, the source gives them in different places. Numbered stars: 1 amine (or outer) side, 2 acyl side, 3 side chain; on linkers, the order of the positions; unused ones are H or OH. Square brackets hold non-standard residues; d marks the D form. Side chains are listed from the residue outwards. Peptide text beside a SMILES is read from it. * marks the point of attachment. γGlu = O=C(O)[C@H](CCC(=O)[*:2])N[*:1]; Palmitoyl = CCCCCCCCCCCCCCCC(=O)*; αMeF = C[C@](N)(Cc1ccccc1)C(=O)O; αMeK = C[C@](N)(CCCCN)C(=O)O; αMeS = C[C@](N)(CO)C(=O)O; Aib = CC(C)(N)C(=O)O
Columns and labels:
Assay type in all cases: cell-based
[1] = biological target: T1, human GLP-1 receptor (GLP-1R) (Homo sapiens, UniProt P43220); assay: cAMP assay, human GLP-1R cells
T1 construct: expressed in transfected cells
Method in brief: (§1)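 Peptide-stimulated cAMP measured by two-step HTRF after a 30 min room-temperature incubation with receptor-expressing cells (hGLP-1R, hGIPR at 1×10^5 cells/ml; hGCGR at 2×10^5 cells/ml). Duplicate dilutions; EC50 from 4-parameter logistic fit of % Delta F.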

GLP-1R (INS1e assay) = biological target: T2, GLP-1R (INS1e assay) (Rattus norvegicus, UniProt P32301); assay: INS1e assay, cAMP activity at GLP-1R; conditions: mono-lipidated peptides
T2 construct: endogenous in cells; host or cells: INS-1E cells
T2 sequence (P32301 22-463): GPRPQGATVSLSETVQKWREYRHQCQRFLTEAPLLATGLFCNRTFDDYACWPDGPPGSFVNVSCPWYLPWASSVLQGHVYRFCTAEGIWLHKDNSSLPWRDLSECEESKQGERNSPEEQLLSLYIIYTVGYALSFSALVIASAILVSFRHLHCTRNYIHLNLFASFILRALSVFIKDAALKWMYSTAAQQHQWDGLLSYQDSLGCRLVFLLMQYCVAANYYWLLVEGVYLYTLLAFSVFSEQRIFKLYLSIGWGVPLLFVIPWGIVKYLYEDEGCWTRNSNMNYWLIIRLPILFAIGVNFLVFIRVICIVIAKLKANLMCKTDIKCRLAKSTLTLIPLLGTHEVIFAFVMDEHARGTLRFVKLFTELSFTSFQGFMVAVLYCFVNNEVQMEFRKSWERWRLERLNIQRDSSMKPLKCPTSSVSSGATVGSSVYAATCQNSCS
Method in brief: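 cAMP was quantified by two-step HTRF, using anti-cAMP cryptate donor and cAMP-d2 acceptor, each diluted 1/20 in conjugate and lysis buffer. EC50 values of the synthetic peptides were derived from the cAMP readout.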

[2] = biological target: T3, human glucose-dependent insulinotropic peptide receptor (GIPR) (Homo sapiens, UniProt P48546); assay: cAMP assay, human GIPR cells
T3 construct: expressed in transfected cells
T3 sequence (P48546 22-466): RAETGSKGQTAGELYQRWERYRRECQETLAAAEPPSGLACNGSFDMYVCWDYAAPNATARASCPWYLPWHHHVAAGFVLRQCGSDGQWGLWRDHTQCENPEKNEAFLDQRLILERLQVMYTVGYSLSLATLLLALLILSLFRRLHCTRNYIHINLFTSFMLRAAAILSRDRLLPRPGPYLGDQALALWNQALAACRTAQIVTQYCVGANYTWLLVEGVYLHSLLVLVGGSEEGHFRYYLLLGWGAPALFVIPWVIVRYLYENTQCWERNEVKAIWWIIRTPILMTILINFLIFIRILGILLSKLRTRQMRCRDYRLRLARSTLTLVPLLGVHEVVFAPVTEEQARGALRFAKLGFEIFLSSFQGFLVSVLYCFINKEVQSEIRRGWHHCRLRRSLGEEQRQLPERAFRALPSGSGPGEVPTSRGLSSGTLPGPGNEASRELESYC
Method in brief: as §1

[3] = biological target: T4, human glucagon receptor (GCGR) (Homo sapiens, UniProt P47871); assay: cAMP assay, human GCGR cells
T4 construct: expressed in transfected cells
Method in brief: as §1

[4] = cAMP assay, first determination (n1), read-out: Primary assay EC50 GLP-1R n1
[5] = cAMP assay, second determination (n2), read-out: Primary assay EC50 GLP-1R n2
[6] = mean of n1 and n2, read-out: Mean pM GLP-1R
[7] = mean of n1 and n2, read-out: INS1e assay EC50 Mean pM GLP-1R
[8] = replicate n1, read-out: INS1e assay EC50 GLP-1R n1
[9] = replicate n2, read-out: INS1e assay EC50 GLP-1R n2
[10] = cAMP assay, first determination (n1), read-out: Primary assay EC50 GIP-R (n1)
[11] = cAMP assay, second determination (n2), read-out: Primary assay EC50 GIP-R (n2)
[12] = cAMP assay, first determination (n1), read-out: Primary assay EC50 Gluc-R (n1)
[13] = cAMP assay, second determination (n2), read-out: Primary assay EC50 Gluc-R (n2)

T1 sequence (P43220 24-463): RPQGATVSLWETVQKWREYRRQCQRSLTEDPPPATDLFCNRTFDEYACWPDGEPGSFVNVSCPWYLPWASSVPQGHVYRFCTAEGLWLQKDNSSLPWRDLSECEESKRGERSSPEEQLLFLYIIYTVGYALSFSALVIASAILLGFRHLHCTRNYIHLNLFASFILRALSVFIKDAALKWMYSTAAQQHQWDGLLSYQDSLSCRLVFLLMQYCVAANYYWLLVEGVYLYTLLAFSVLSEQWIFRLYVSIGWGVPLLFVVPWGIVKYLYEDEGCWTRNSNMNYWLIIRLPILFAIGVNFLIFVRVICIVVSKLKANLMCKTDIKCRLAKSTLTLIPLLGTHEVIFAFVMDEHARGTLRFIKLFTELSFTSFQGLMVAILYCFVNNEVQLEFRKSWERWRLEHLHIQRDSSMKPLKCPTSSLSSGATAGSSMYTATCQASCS
T4 sequence (P47871 26-477): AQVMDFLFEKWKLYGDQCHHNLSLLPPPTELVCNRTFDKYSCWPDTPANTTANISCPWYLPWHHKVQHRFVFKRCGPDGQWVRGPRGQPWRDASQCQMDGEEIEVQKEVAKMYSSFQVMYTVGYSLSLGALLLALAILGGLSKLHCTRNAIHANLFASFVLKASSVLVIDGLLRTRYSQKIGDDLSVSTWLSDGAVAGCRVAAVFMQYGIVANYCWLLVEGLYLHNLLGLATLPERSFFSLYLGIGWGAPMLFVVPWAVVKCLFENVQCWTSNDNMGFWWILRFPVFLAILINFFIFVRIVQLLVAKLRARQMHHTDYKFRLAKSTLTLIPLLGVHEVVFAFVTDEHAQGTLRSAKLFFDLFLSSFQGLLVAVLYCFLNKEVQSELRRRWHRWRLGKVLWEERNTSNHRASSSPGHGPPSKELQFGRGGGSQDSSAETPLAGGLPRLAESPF

Structure (SMILES)	EC50 [1, 4]	EC50 [1, 5]	EC50 [1, 6]	EC50 (GLP-1R (INS1e assay); [7])	EC50 (GLP-1R (INS1e assay); [8])	EC50 (GLP-1R (INS1e assay); [9])	EC50 [2, 10]	EC50 [2, 11]	EC50 [3, 12]	EC50 [3, 13]	EC50 ([1]; first run (n1), cAMP activity, read-out: Primary assay EC50 GLP-1R n1)	EC50 ([1]; second run (n2), cAMP activity, read-out: Primary assay EC50 GLP-1R n2)	EC50 ([2]; first run (n1), cAMP activity, read-out: Primary assay EC50 GIP-R)	EC50 ([2]; second run (n2), cAMP activity, read-out: Primary assay EC50 GIP-R)	EC50 ([3]; first run (n1), cAMP activity of substituted and mono-lipidated peptides, read-out: Primary assay EC50 Gluc-R)	EC50 ([3]; second run (n2), cAMP activity, read-out: Primary assay EC50 Gluc-R)
CCCCCCCCCCCCCCCC(=O)N[C@@H](CCC(=O)NCCCC[C@H](NC(=O)[C@](C)(CCCCN)NC(=O)[C@@H](NC(=O)[C@@H](NC(=O)[C@](C)(Cc1ccccc1)NC(=O)[C@H](C)NC(=O)[C@@H](NC(=O)[C@](C)(Cc1ccccc1)NC(=O)[C@H](CCC(=O)O)NC(=O)[C@](C)(CCCCN)NC(=O)[C@H](C)NC(=O)[C@H](C)NC(=O)[C@H](CCC(=O)O)NC(=O)CNC(=O)[C@H](CCC(=O)O)NC(=O)[C@H](CC(C)C)NC(=O)[C@](C)(Cc1ccccc1)NC(=O)[C@H](CO)NC(=O)[C@](C)(CO)NC(=O)[C@@H](NC(=O)[C@H](CC(=O)O)NC(=O)[C@H](CO)NC(=O)[C@@H](NC(=O)[C@](C)(Cc1ccccc1)NC(=O)[C@H](CO)NC(=O)CNC(=O)[C@H](CCC(=O)O)NC(=O)C(C)(C)NC(=O)[C@@H](N)Cc1c[nH]cn1)[C@@H](C)O)C(C)C)[C@@H](C)CC)C(C)C)C(C)C)C(=O)NCC(N)=O)C(=O)O [compound 71] (H-H[Aib]EGS[αMeF]TSDV[αMeS]S[αMeF]LEGEAA[αMeK]E[αMeF]IA[αMeF]VV[αMeK]K([γGlu-Palmitoyl])G-NH2)	6.2 pM	8 pM	7.1 pM	723 pM	604 pM	841 pM	≥ 27 nM	≥ 27 nM	≥ 27 nM	≥ 27 nM	–	–	–	–	–	–
CCCCCCCCCCCCCCCCCC(=O)NCCOCCOCC(=O)NCCOCCOCC(=O)NCCCC[C@H](NC(=O)[C@@H](NC(=O)[C@@H](NC(=O)[C@](C)(Cc1ccccc1)NC(=O)[C@H](C)NC(=O)[C@@H](NC(=O)[C@](C)(Cc1ccccc1)NC(=O)[C@H](CCC(=O)O)NC(=O)[C@](C)(CCCCN)NC(=O)[C@H](C)NC(=O)[C@H](C)NC(=O)[C@H](CCC(=O)O)NC(=O)CNC(=O)[C@H](CCC(=O)O)NC(=O)[C@H](CC(C)C)NC(=O)[C@](C)(Cc1ccccc1)NC(=O)[C@H](CO)NC(=O)[C@](C)(CO)NC(=O)[C@@H](NC(=O)[C@H](CC(=O)O)NC(=O)[C@H](CO)NC(=O)[C@@H](NC(=O)[C@](C)(Cc1ccccc1)NC(=O)[C@H](CO)NC(=O)CNC(=O)[C@H](CCC(=O)O)NC(=O)C(C)(C)NC(=O)[C@@H](N)Cc1c[nH]cn1)[C@@H](C)O)C(C)C)[C@@H](C)CC)C(C)C)C(C)C)C(=O)NCC(=O)NCC(N)=O [compound 189]	–	–	20.8 pM	144 pM	114 pM	173 pM	–	–	–	–	30 pM	12 pM	≥ 27 nM	≥ 27 nM	≥ 27 nM	≥ 27 nM
CCCCCCCCCCCCCCCC(=O)N[C@@H](CCC(=O)NCCCC[C@H](NC(=O)CNC(=O)[C@H](CCC(=O)O)NC(=O)[C@H](CC(C)C)NC(=O)[C@](C)(Cc1ccccc1)NC(=O)[C@H](CO)NC(=O)[C@](C)(CO)NC(=O)[C@@H](NC(=O)[C@H](CC(=O)O)NC(=O)[C@H](CO)NC(=O)[C@@H](NC(=O)[C@](C)(Cc1ccccc1)NC(=O)[C@H](CO)NC(=O)CNC(=O)[C@H](CCC(=O)O)NC(=O)C(C)(C)NC(=O)[C@@H](N)Cc1c[nH]cn1)[C@@H](C)O)C(C)C)C(=O)N[C@@H](C)C(=O)N[C@@H](C)C(=O)N[C@@](C)(CCCCN)C(=O)N[C@@H](CCC(=O)O)C(=O)N[C@@](C)(Cc1ccccc1)C(=O)N[C@H](C(=O)N[C@@H](C)C(=O)N[C@@](C)(Cc1ccccc1)C(=O)N[C@H](C(=O)N[C@H](C(=O)N[C@@](C)(CCCCN)C(=O)NCC(=O)NCC(N)=O)C(C)C)C(C)C)[C@@H](C)CC)C(=O)O [compound 83] (H-H[Aib]EGS[αMeF]TSDV[αMeS]S[αMeF]LEGK([γGlu-Palmitoyl])AA[αMeK]E[αMeF]IA[αMeF]VV[αMeK]GG-NH2)	3.2 pM	4 pM	3.6 pM	194 pM	137 pM	250 pM	≥ 28 nM	≥ 28 nM	≥ 28 nM	≥ 28 nM	–	–	–	–	–	–
